Data set [1] deals with human OATP8 and MRP2 (MDCK-MRP2/OATP8 cells). The experiment in a line: Transcellular transport of organic anions across MDCK-MRP2/OATP8 cells on Transwell membrane inserts. The note with it: substrate in basolateral compartment, 37° C., apical compartment measured; MDCK-MRP2/OATP8 compared with MDCK-OATP8, MDCK-Co (and MDCK-MRP2) cells.
The test system is the same in data set [2]. The experiment in a line: Inhibition of transcellular [3H]BSP transport in MDCK-MRP2/OATP8 cells. The format is cell-based. As to conditions: 1 μM [3H]BSP, 30 min, 37° C.
Data set [3] has as its target T1, human OATP8 (MDCK-OATP8 cells) (Homo sapiens, UniProt Q9NPD5).
T1 sequence (Q9NPD5 1-702): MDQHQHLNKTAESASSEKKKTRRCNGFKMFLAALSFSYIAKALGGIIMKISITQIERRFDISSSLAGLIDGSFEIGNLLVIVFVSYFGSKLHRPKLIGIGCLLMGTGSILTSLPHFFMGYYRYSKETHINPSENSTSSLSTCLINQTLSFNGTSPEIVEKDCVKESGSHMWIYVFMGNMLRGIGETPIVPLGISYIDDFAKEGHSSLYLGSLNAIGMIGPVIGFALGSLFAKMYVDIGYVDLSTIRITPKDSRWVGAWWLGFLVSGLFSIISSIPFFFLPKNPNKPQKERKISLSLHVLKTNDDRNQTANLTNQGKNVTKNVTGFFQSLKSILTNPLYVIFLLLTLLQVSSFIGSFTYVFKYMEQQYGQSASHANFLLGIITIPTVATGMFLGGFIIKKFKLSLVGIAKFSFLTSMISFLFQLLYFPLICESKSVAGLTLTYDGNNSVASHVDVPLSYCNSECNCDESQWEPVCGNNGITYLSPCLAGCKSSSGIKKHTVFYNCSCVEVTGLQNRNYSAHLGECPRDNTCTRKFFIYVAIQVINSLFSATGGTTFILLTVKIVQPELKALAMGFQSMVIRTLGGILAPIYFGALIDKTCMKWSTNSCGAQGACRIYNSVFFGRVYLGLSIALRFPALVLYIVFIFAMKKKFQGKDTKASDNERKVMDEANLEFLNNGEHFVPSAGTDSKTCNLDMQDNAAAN
The experiment in a line: Inhibition of [3H]BSP accumulation and transport in MDCK-OATP8 cells. The note with it: pre-incubation 20 min at room temperature, up to a concentration of 50 μM.

In a further data set the target is human MRP2 (Homo sapiens, UniProt Q92887). The experiment in a line: Inhibition of [3H]LTC4 transport into HEK-MRP2 membrane vesicles. Type of data set: biochemical. As to conditions: inhibitor at 50 μM.
Data set [4] concerns human OATP8 and MRP2 (MDCK-MRP2/OATP8 cells).
The subject of a further data set is MDCKII cell lines. The experiment in a line: Transcellular leakage of [14C]inulin carboxylic acid across MDCKII cell monolayers. The format is cell-based, canine. The note with it: 50 μM basolateral, 30 min, all four MDCKII cell lines. As to the method:
The transcellular leakage was determined by incubating cells with 50 μM [^14C]inulin carboxylic acid in the basolateral compartments for 30 min and measuring the radioactivity in the apical compartments. For all four MDCKII cell lines used in this work the transcellular leakage was lower than 1%.

Substrate in data set [5]: O=C1OC(c2ccc(O)c(S(=O)(=O)O)c2)(c2ccc(O)c(S(=O)(=O)O)c2)c2c(Br)c(Br)c(Br)c(Br)c21
The experiment in a line: ATP-dependent transport of [3H]BSP into inside-out membrane vesicles from HEK-MRP2 cells. The format is biochemical, human. As to conditions: other: BSP concentrations between 1 and 10 μM; pH 7.4; 37.0 °C. The procedure: Vesicle Transport Studies. Transport of [^3H]BSP into membrane vesicles was measured by the rapid filtration method (Keppler et al. 1998). Briefly, membrane vesicles (30 μg protein) were incubated in the presence of 4 mM ATP, 10 mM creatine phosphate, 100 μg/ml creatine kinase, and [^3H]BSP in an incubation buffer (250 mM sucrose, 10 mM Tris/HCl, pH 7.4) in a final volume of 55 μl at 37° C. Aliquots (15 μl) were taken at the indicated time points, diluted in 1 ml ice-cold incubation buffer, and immediately filtered through presoaked nitrocellulose membrane (0.2 μm pore size, Schleicher & Schüll, Dassel, Germany). Filters were rinsed twice with 5 ml of incubation buffer, dissolved in liquid scintillation fluid, and counted for radioactivity. In control experiments, ATP was replaced by an equal concentration of 5′-AMP. ATP-dependent transport was calculated by subtracting values obtained in the presence of 5′-AMP from those obtained in the presence of ATP.

Data on 9 molecules can be found in US7229825B2, “Double-transfected cell line useful for the identification of transport inhibitors” (Deutches Krebsforschungszentrum Stiftung des Offentlichen …, priority 2001, dated 2007).

Like-named read-outs stand apart in the source and are kept apart here.

Consider `C[C@]12CC[C@@H]3c4ccc(O)cc4CC[C@H]3[C@@H]1CC[C@@H]2O[C@@H]1O[C@H](C(=O)O)[C@@H](O)[C@H](O)[C@H]1O` [E217bG, 17b-glucuronosyl estradiol], for which the “transcellular transport (basolateral to apical)” value in data set [1] was “much higher velocities”.
As to `O=[N+]([O-])c1ccc(Cl)c([N+](=O)[O-])c1` [CDNB, 1-chloro-2,4-dinitrobenzene], in data set [2] (different concentrations), the “effect on intracellular accumulation of [3H]BSP in MDCK-MRP2/OATP8 cells” value is “enhanced” and the “effect on transcellular transport of [3H]BSP in MDCK-MRP2/OATP8 cells” value is given as “markedly inhibited”. In data set [3], the “effect on intracellular accumulation of [3H]BSP in MDCK-OATP8 cells” value is reported as “not inhibited” and the “effect on transcellular transport of [3H]BSP in MDCK-OATP8 cells” value is recorded as “not inhibited”.
For the molecule `CO[C@H]1/C=C/O[C@@]2(C)Oc3c(C)c([O-])c4c(O)c(cc(O)c4c3C2=O)NC(=O)/C(C)=C\C=C\[C@H](C)[C@H](O)[C@@H](C)[C@@H](O)[C@@H](C)[C@H](OC(C)=O)[C@@H]1C.[Na+]` [rifamycin SV], the “intracellular accumulation of [3H]BSP in MDCK-MRP2/OATP8 cells” value in data set [2] is recorded as “about 50 % of control”. Further, the “effect on transcellular transport of [3H]BSP in MDCK-MRP2/OATP8 cells” value in data set [2] (different concentrations) was “inhibited more strongly”. The “[3H]LTC4 transport into HEK-MRP2 membrane vesicles” value at human MRP2 is 38 % of control.
Consider `CCCCC/C=C\C\C=C/C=C/C=C/[C@@H](SC[C@H](NC(=O)CC[C@H](N)C(=O)O)C(=O)NCC(=O)O)[C@@H](O)CCCC(=O)O` [LTC4, leukotriene C4], for which, in data set [4], the “transcellular transport (basolateral to apical)” value is listed as “much higher velocities”.
Same read-out and setting: the value for `Cc1ccc(N(CC(=O)O)CC(=O)O)c(OCCOc2cc(-c3c4cc(Cl)c(=O)cc-4oc4cc(O)c(Cl)cc34)ccc2N(CC(=O)O)CC(=O)O)c1.N.N.N.N.N` [Fluo-3, 1-[2-amino-5-(2,7-dichloro-6-hydroxy-3-oxo-3H-xanthen-9-yl)]-2-(2′-amino-5′-methyl-phenoxyl)-ethane-N,N,N′,N′-tetraacetic acid penta-ammonium salt] was “higher transport rate”.
In the case of `CO[C@H]1/C=C/O[C@@]2(C)Oc3c(C)c(O)c4c(O)c(c(/C=N/N5CCN(C)CC5)c(O)c4c3C2=O)NC(=O)/C(C)=C\C=C\[C@H](C)[C@H](O)[C@@H](C)[C@@H](O)[C@@H](C)[C@H](OC(C)=O)[C@@H]1C` [rifampicin], the “intracellular accumulation of [3H]BSP in MDCK-MRP2/OATP8 cells” value in data set [2] is reported as “about 50 % of control”. For the same molecule, on human MRP2, the “[3H]LTC4 transport into HEK-MRP2 membrane vesicles” value was 50 % of control. In data set [1], the “transcellular transport (basolateral to apical)” value was “significantly higher transcellular transport”.
`C[C@H](CCC(=O)NCCS(=O)(=O)O)[C@H]1CC[C@H]2[C@@H]3[C@H](O)C[C@@H]4C[C@H](O)CC[C@]4(C)[C@H]3C[C@H](O)[C@]12C` [[^3H]cholyl taurine, cholyl taurine]: the “transcellular transport (basolateral to apical)” value in data set [1] is “no difference in transport rates”.
For “Inulin carboxylic acid [[^14C]Inulin carboxylic acid]”, the transcellular leakage entry in the data set with MDCKII cell lines is listed as “lower than 1%”.

B1: human MRP2 (Homo sapiens) (protein)
chain: MLEKFCNSTFWNSSFLDSPEADLPLCFEQTVLVWIPLGYLWLLAPWQLLHVYKSRTKRSSTTKLYLAKQVFVGFLLILAAIELALVLTEDSGQATVPAVRYTNPSLYLGTWLLVLLIQYSRQWCVQKNSWFLSLFWILSILCGTFQFQTLIRTLLQGDNSNLAYSCLFFISYGFQILILIFSAFSENNESSNNPSSIASFLSSITYSWYDSIILKGYKRPLTLEDVWEVDEEMKTKTLVSKFETHMKRELQKARRALQRRQEKSSQQNSGARLPGLNKNQSQSQDALVLEDVEKKKKKSGTKKDVPKSWLMKALFKTFYMVLLKSFLLKLVNDIFTFVSPQLLKLLISFASDRDTYLWIGYLCAILLFTAALIQSFCLQCYFQLCFKLGVKVRTAIMASVYKKALTLSNLARKEYTVGETVNLMSVDAQKLMDVTNFMHMLWSSVLQIVLSIFFLWRELGPSVLAGVGVMVLVIPINAILSTKSKTIQVKNMKNKDKRLKIMNEILSGIKILKYFAWEPSFRDQVQNLRKKELKNLLAFSQLQCVVIFVFQLTPVLVSVVTFSVYVLVDSNNILDAQKAFTSITLFNILRFPLSMLPMMISSMLQASVSTERLEKYLGGDDLDTSAIRHDCNFDKAMQFSEASFTWEHDSEATVRDVNLDIMAGQLVAVIGPVGSGKSSLISAMLGEMENVHGHITIKGTTAYVPQQSWIQNGTIKDNILFGTEFNEKRYQQVLEACALLPDLEMLPGGDLAEIGEKGINLSGGQKQRISLARATYQNLDIYLLDDPLSAVDAHVGKHIFNKVLGPNGLLKGKTRLLVTHSMHFLPQVDEIVVLGNGTIVEKGSYSALLAKKGEFAKNLKTFLRHTGPEEEATVHDGSEEEDDDYGLISSVEEIPEDAASITMRRENSFRRTLSRSSRSNGRHLKSLRNSLKTRNVNSLKEDEELVKGQKLIKKEFIETGKVKFSIYLEYLQAIGLFSIFFIILAFVMNSVAFIGSNLWLSAWTSDSKIFNSTDYPASQRDMRVGVYGALGLAQGIFVFIAHFWSAFGFVHASNILHKQLLNNILRAPMRFFDTTPTGRIVNRFAGDISTVDDTLPQSLRSWITCFLGIISTLVMICMATPVFTIIVIPLGIIYVSVQMFYVSTSRQLRRLDSVTRSPIYSHFSETVSGLPVIRAFEHQQRFLKHNEVRIDTNQKCVFSWITSNRWLAIRLELVGNLTVFFSALMMVIYRDTLSGDTVGFVLSNALNITQTLNWLVRMTSEIETNIVAVERITEYTKVENEAPWVTDKRPPPDWPSKGKIQFNNYQVRYRPELDLVLRGITCDIGSMEKIGVVGRTGAGKSSLTNCLFRILEAAGGQIIIDGVDIASIGLHDLREKLTIIPQDPILFSGSLRMNLDPFNNYSDEEIWKALELAHLKSFVASLQLGLSHEVTEAGGNLSIGQRQLLCLGRALLRKSKILVLDEATAAVDLETDNLIQTTIQNEFAHCTVITIAHRLHTIMDSDKVMVLDNGKIIECGSPEELLQIPGPFYFMAKEAGIENVNSTKF
notes: expressed in transfected cells
Turning to B1, the Km in data set [5] came to 12 µM.
